Columns and labels:
[1] = test system: cleaved PARP, caspase-3, caspase-7 in hBMMSCs; experiment: Western blot of apoptotic markers, hBMMSCs; type: cell-based, human; settings: 2.5 μM, 12 hours
Procedure: RIPA buffer was used to harvest cell lysates (RIPA buffer: NaCl 150 mM, Tris pH 8.0 50 mM, EDTApH 8.0 5 mM, NP-40 1.0%, SDS 0.5%, sodium deoxycholate 0.1%). Western blot analyses were performed as previously described with different types of primary antibodies^29. The primary antibody includes anti-β-actin (A5441; Sigma), anti-Oct4 (sc-9081; Santa Cruz Biotechnology, Santa Cruz, CA, USA), anti-Nanog (3580; Cell Signaling Technology, Danvers, MA, USA), apoptosis antibody kit (9915; Cell Signaling Technology), ATP1A1 (3010; Cell Signaling Technology), and ATP1A2 (16836-1-AP; Proteintech™) were used. After reaction at 4° C. overnight, the blots were incubated with goat anti-mouse- or goat anti-rabbit antibody conjugated with horseradish peroxidase (Jackson ImmunoResearch Inc). The chemiluminescent substrate (WBKLS0500; Millipore, Darmstadt, Germany) was used to detect the blots. Fujifilm LAS-4000 (FUJIFILM, Tokyo, Japan) was used to take the images.

[2] = test system: hBMMSCs; experiment: Chondrogenic induction and Alcian blue assay; type: cell-based, human; settings: 2.5 μM 24 hours, drug removed; Alcian blue O.D 650 nm
Procedure: Next, drugs were removed, and 1×10^5 cells were seeded in 96-well U-bottom culture plated. After 24 hours, we changed the complete MSCgo™ Chondrogenic medium (Biological Industries) for 21 days. The media were changed every 3-4 days. Next, the pelleted cells were fixed with 4% formaldehyde for 1 hours, washed twice with ddH2O, and stained with a 1% Alcian blue solution in 0.1N HCl for 30 min. For Alcian Blue elution, we added […] Guanidine HCL solution and incubated overnight at RT. The absorbance at 650 nm was detected.

[3] = test system: hBMMSCs; experiment: Osteogenic differentiation and Alizarin Red S staining; type: cell-based, human; settings: 2.5 μM 24 hours, drug removed; Alizarin Red S O.D 570 nm
Procedure: Drugs were removed, and the cells were washed with PBS and cultured in MSCgo™ Osteogenic Differentiation medium (Biological Industries, Kibbutz Beit-Haemek, Israel)^31. The media changed twice per week for 14-21 days. Next, the cells were fixed with ice-cold 70% ethanol at −20° C. for 1 hour. After washing with water for three times, the cells were then stained with 40 mM Alizarin Red S (ARS) (pH 4.2) at room temperature for 10 minutes. The cells were then washed with PBS for five times. An Olympus CK-40 microscope was used to take the images. For quantification, the dye was extracted with 10% (w/v) cetylpyridinium chloride (Sigma 0732) in sodium phosphate buffer (pH 7.0) for 15 minutes, and the O.D. at 570 nm was measured.

[4] = test system: hESCs teratoma formation; experiment: In vivo tumorigenicity assay (teratoma formation of treated hESCs); settings: hESCs treated 24 hours before subcutaneous injection into NSG mice; 8 weeks; vs DMSO
Procedure: Approximately 10^6 treated cells were mixed with 10^5 MEFs to promote teratoma formation in 50 μl PBS^32. The cells mixture and 1× Matrigel Matrix was mixed well and the cells were subcutaneously injected into NOD scid gamma mice (NSG mice) for 8 weeks. After 8 weeks, animals were sacrificed and teratoma was removed, fixed in 10% formalin, embedded in paraffin and stained with hematoxylin and eosin. H&E stain protocol was modified from previous study^33. For immunohistochemistry, teratoma sections were blocked using 5% milk for 1 hour, and stained with primary antibody at 4° C. overnight, follow by secondary antibody (Dako, Santa Clara, CA, USA) for 1 hour at RT and DAB enhancer (Dako). Primary antibody: anti-human alpha-1-fetoprotein (A0008, Dako) for endoderm lineage; anti-human smooth muscle actin, clone 1A4 (M0851, Dako) for mesoderm lineage; anti-Tuj1 (MAB1637, EMD Millipore, Darmstadt, Germany) for ectoderm.

[5] = test system: hESCs; experiment: PI/Annexin V flow cytometry cell death assay, hESCs; type: cell-based, human; settings: 24 hours; FIG. 2A: 1.25 μM digoxin, 2.5 μM lanatoside C
Procedure: For cell death assay, Propidium iodine/Annexin V assay was performed according to the manufacturer's instruction (Alexa Fluor® 488 Annexin V/Dead Cell Apoptosis Kit; Life Technologies). In brief, live cells were dissociated with trypsin and incubated with Annexin V antibody and PI working solution for 15 minutes. We added 400 μl 1× annexin binding buffer and analyzed the stained cells by FACSCanto™ (Becton Dickinson, Franklin Lakes, NJ, USA). For analyzing the phenotypic signature of MSCs we used a Stemflow™ hMSC analysis kit (BD Biosciences) and FACSCanto™. All flow data was analyzed by FACSDivam software (BD Biosciences) and FlowJo™ (FlowJo, LLC, Ashland, USA).

[6] = test system: hBMMSCs; experiment: Adipogenesis and Oil Red O assay; type: cell-based, human; settings: 2.5 μM 24 hours, drug removed; oil red O.D 510 nm
Procedure: Next, drugs were removed, and the cells were cultured in MSCgo™ Adipogenic Differentiation Medium (Biological Industries). The media was changed every 3-4 days for 8-12 days. After the adipogenic induction, we replaced the MSCgo™ Adipogenic complete medium with MSC maintenance medium for 6-9 days. The cells were carefully fixed with 4% formaldehyde for 1 hour at room temperature, washed with 60% isopropanol, and air-dried. The lipid drops were stained with Oil Red O working solution (30 ml 0.35% oil red solution in isopropanol diluted with 20 ml of distilled water) for 10 minutes. Next, the cells were washed with water 4 times. For quantification, Oil Red O stain was extracted with 100% isopropanol, and the absorbance at 510 nm was detected.

SMILES	cleaved form of apoptosis markers in hBMMSCs [1]	differentiation ability of hBMMSCs into chondrocytes [2]	differentiation ability of hBMMSCs into osteoblasts [3]	tumor (teratoma) weight [4]	cell death (PI/Annexin V) in hESCs [5] [%]	differentiation ability of hBMMSCs into adipocytes [6]
C[C@H]1O[C@@H](O[C@H]2[C@@H](O)C[C@H](O[C@H]3[C@@H](O)C[C@H](O[C@H]4CC[C@@]5(C)[C@H](CC[C@@H]6[C@@H]5C[C@@H](O)[C@]5(C)[C@@H](C7=CC(=O)OC7)CC[C@]65O)C4)O[C@@H]3C)O[C@@H]2C)C[C@H](O)[C@@H]1O [Digoxin, digoxin]	no cleaved form of the apoptosis markers was detected	neither digoxin nor lanatoside C affected the differentiation ability	neither digoxin nor lanatoside C affected the differentiation ability	significantly decreased	70	neither digoxin nor lanatoside C affected the differentiation ability
CC(=O)O[C@H]1C[C@H](O[C@H]2[C@@H](O)C[C@H](O[C@H]3[C@@H](O)C[C@H](O[C@H]4CC[C@@]5(C)[C@H](CC[C@@H]6[C@@H]5C[C@@H](O)[C@]5(C)[C@@H](C7=CC(=O)OC7)CC[C@]65O)C4)O[C@@H]3C)O[C@@H]2C)O[C@H](C)[C@H]1O[C@@H]1O[C@H](CO)[C@@H](O)[C@H](O)[C@H]1O [Lanatoside C, lanatoside C]	no cleaved form of the apoptosis markers was detected	neither digoxin nor lanatoside C affected the differentiation ability	neither digoxin nor lanatoside C affected the differentiation ability	significantly decreased	82	neither digoxin nor lanatoside C affected the differentiation ability
